Data published in US20230285405A1, “Pharmaceuticals for Treating or Preventing Nidoviruses and Picornaviruses” (priority 2020, published 2023).
Where two headings read alike, the source gives them in different places.

Key:
[1] = system: OC43; test: Drug screening: OC43 nucleoprotein staining in infected A549-mRuby cells; type: cell-based, human beta coronavirus OC43; conditions: for activity at 10 µM: Betacoronavirus 1, OC43, 96 h
In short: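 A549 cells expressing H2B-mRuby infected with OC43 at MOI 0.3 for 1 h at 33° C, then drugs added at 10 μM final and incubated 4 days at 33° C. Viral nucleoprotein immunostained and imaged; intensity normalized to cell number and no-drug controls (=100). Hits reduced staining >3 SD in both repeats without toxicity.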

[2] = system: A549-mRuby cells; test: Drug screening: effect on cell growth (cell number day 4 / day 0); conditions: 10 μM drug; for Growth_1: number of cells at day 4 divided by number of cells at day 0 / toxic_1: repeat #1; for Growth_2: number of cells at day 4 divided by number of cells at day 0 / toxic_2: repeat #2
In short: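 A549 cells carrying an H2B-mRuby reporter were infected with OC43 at MOI 0.3 for 1 h at 33° C, then given drug at 10 μM final. Cell numbers were counted by imaging at day 0 and again at day 4 after 4 days at 33° C, 5% CO2, with the screen run twice.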

[3] = system: SARS-CoV-2; test: SARS-CoV-2 plaque titers (progeny production); type: cell-based, SARS-CoV-2 (nCoV/Washington/1/2020); conditions: 10 μM drug for 2 hours, MOI 0.5, supernatant collected 2 days after
Protocol: For SARS-CoV-2 plaque titers, cell supernatants from the infection described above were serially diluted (10-fold steps were used) and used to infect Vero E6 cells for 1 hour. Inoculum was removed and 1.25% methylcellulose DMEM solution was added to the cells and incubated for 3 days. Plates were fixed in 1:10 formalin for 1 hour, stained with crystal violet for 1 hour and were counted to determine plaque forming units (PFU)/ml.
The effect of several drugs on the production of viable progeny viruses was evaluated. Cells were treated with 10 μM of the drugs for 2 hours, infected at an MOI of 0.5 and the supernatant collected 2 days after for titration (FIG. 2C). Cepharanthine and azelastine completely eliminated SARS-CoV-2 progeny production (>5-logs decrease), while flupenthixol and desloratidine reduced viral titers by about 2-logs. Ultimately, the screen identified 20 safe-in-human drugs that are able to inhibit both OC43 and SARS-CoV-2 infection in vitro.

[4] = system: OC43; test: Dose-response analysis of OC43 infection; type: cell-based, human beta coronavirus OC43
Protocol: Dose-response analysis of OC43 infection was done similarly to the drug screening, except cells were seeded at a concentration of 5,000 cells per well and the media contained 2% BCS instead of 10% BCS. OC43 staining was performed 2 days after infection and analyzed similarly to what was described for the drug screening. A sigmoid fit was used to extract EC50 values using Matlab.

[5] = system: SARS-CoV-2; test: microbe, parasite or virus in culture; type: cell-based, SARS-CoV-2 (nCoV/Washington/1/2020)
[6] = biological target: T1, SARS-CoV-2 3CLpro (Severe acute respiratory syndrome coronavirus 2, UniProt P0DTD1); type: cell-based
T1 construct: the SARS-CoV-2 main protease (also known as 3CLpro, Mpro and nsp5); expressed in transfected cells; host or cells: 293T cells

[7] = 10 μM drug, MOI 0.3, 4 days, OC43 staining normalized to no-drug controls, mean of the two screen repeats
[8] = 10 μM drug, MOI 0.3, 4 days, OC43 staining normalized to no-drug controls, mean of the two screen repeats, read-out: OC43_mean
[9] = 10 μM drug, MOI 0.3, 4 days, normalized to no-drug controls in the same plate, repeat #1, read-out: OC43_1: % staining of OC43 in screen repeat #1
[10] = 10 μM drug, MOI 0.3, 4 days, normalized to no-drug controls in the same plate, repeat #2, read-out: OC43_2: % staining of OC43 in screen repeat #2
[11] = Betacoronavirus 1, OC43, 48 h, read-out: EC50 OC43, A549-mRuby cells, staining 2 days after infection
[12] = Severe acute respiratory syndrome coronavirus 2; read-out: EC50 SARS2
[13] = 10 μM drug, MOI 0.3, 4 days, normalized to no-drug controls in the same plate, repeat #1
[14] = 10 μM drug, MOI 0.3, 4 days, normalized to no-drug controls in the same plate, repeat #2
[15] = A549-mRuby cells, staining 2 days after infection, read-out: EC50 OC43

Row | Molecule | OC43_mean [1, 7] [%] | Growth_1: number of cells at day 4 divided by number of cells at day 0 [2] | toxic_1 [2] | Growth_2: number of cells at day 4 divided by number of cells at day 0 [2] | toxic_2 [2] | hit_1 ([1]; 10 μM drug, repeat #1) | hit_2 ([1]; 10 μM drug, repeat #2) | activity at 10 µM [1, 8] [%] | activity at 10 µM [1, 9] [%] | activity at 10 µM [1, 10] [%] | EC50 [4, 11] [µM] | EC50 [5, 12] [µM] | 3CLpro activity: percentage of GFP-expressing cells (in words) [6] | OC43_1: % staining of OC43 in screen repeat #1 [1, 13] [%] | OC43_2: % staining of OC43 in screen repeat #2 [1, 14] [%] | EC50 [4, 15] [µM] | EC50 ([5]; read-out: EC50 SARS2) [µM] | also measured
1 | Cl.Cl.OCCN1CCN(CCC=C2c3ccccc3Sc3ccc(C(F)(F)F)cc32)CC1 (mixture of isomers) [Flupenthixol dihydrochloride] | 21.0 | 2.1 | 0 | 3.3 | 0 |  |  |  |  |  |  |  |  |  |  |  |  | OC43_1: % staining of OC43 in screen repeat #1 [1]: 8.7%; OC43_2: % staining of OC43 in screen repeat #2 [1]: 33.3%; hit_1 [1]: 1; hit_2 [1]: 1; decrease of SARS-CoV-2 viral titers (progeny production) [3]: about 2 logs
2 | Cc1nc2c([nH]1)CCN(C(=O)c1ccc(NC(=O)c3ccccc3-c3ccccc3)cc1)c1ccccc1-2.O [Conivaptan HCl] |  | 4.2 | 0 | 4.7 | 0 | 1 | 1 | 5.7 | 4.5 | 7 | 4.6 | 4 | statistically significant decrease |  |  |  |  | 
3 | Clc1ccc2c(c1)CCc1cccnc1C2=C1CCNCC1 [Desloratadine] |  | 4.8 | 0 | 4.4 | 0 | 1 | 1 | 19.3 | 13.2 | 25.4 |  |  |  |  |  |  |  | decrease of SARS-CoV-2 viral titers (progeny production) [3]: about 2 logs
4 | CS(=O)(=O)CCNCc1ccc(-c2ccc3ncnc(Nc4ccc(OCc5cccc(F)c5)c(Cl)c4)c3c2)o1 [Lapatinib] | 9.7 | 3.8 |  | 4.4 |  |  |  |  |  |  | 3.1 |  | statistically significant decrease | 5.2 | 14.1 |  |  | EC50 ([5]; Severe acute respiratory syndrome coronavirus 2, read-out: EC50 SARS2): 1.6 µM
5 | O=C(O)CCC(=O)O.O=C(O[C@H]1CN2CCC1CC2)N1CCc2ccccc2[C@@H]1c1ccccc1 [Solifenacin succinate] |  | 5.0 | 0 | 5.0 | 0 | 1 | 1 |  |  |  |  | 3.6 |  |  |  |  |  | activity at 10 µM ([1]; read-out: OC43_1: % staining of OC43 in screen repeat #1): 13%; activity at 10 µM ([1]; read-out: OC43_2: % staining of OC43 in screen repeat #2): 11.3%; activity at 10 µM ([1]; read-out: OC43_mean): 12.1%; EC50 ([4]; Betacoronavirus 1, OC43, 48 h, read-out: EC50 OC43): 4.8 µM
6 | N#Cc1ccc2[nH]cc(CCCCN3CCN(c4ccc5oc(C(N)=O)cc5c4)CC3)c2c1.O [Vilazodone HCl] |  | 3.5 | 0 | 3.9 | 0 | 1 | 1 | 9.8 | 13 | 6.7 | 3.6 | 4.5 | statistically significant decrease |  |  |  |  | 
7 | Bafetinib [Bafetinib (INNO-406)] | 13.4 | 5.0 | 0 | 3.6 | 0 | 1 | 1 |  |  |  |  |  | statistically significant decrease | 17.2 | 9.6 | 2.1 | 2.2 | 
8 | Retapamulin |  | 4.3 | 0 | 4.1 | 0 | 1 | 1 |  |  |  |  |  | statistically significant decrease | 11.7 | 12.6 | 4.5 | 8 | OC43_mean [1]: 12.2%
9 | Velpatasvir | 18.0 | 6.2 | 0 | 5.6 | 0 | 1 | 1 |  |  |  |  |  |  | 26.0 | 10.0 | 2 | > 10 | 
